Assays:
Format in all cases: in vivo
[1] = test system: pigweed (Amaranthus retroflexus); experiment: Test A greenhouse herbicide test, pre- and postemergence
In short: (§1)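 Seeds in loam–sand blend received a preemergence directed soil spray; plants at 2–10 cm, one- to two-leaf stage, received postemergence sprays. Compounds in a non-phytotoxic solvent with surfactant. After about 10 d in a greenhouse, injury rated visually versus untreated controls on a 0–100 scale (100 = complete control).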

[2] = test system: wheat (Triticum aestivum); experiment: as above; conditions: Postemergence
In short: as §1

kochia (Kochia scoparia) = experiment: as above
In short: as §1

corn (Zea mays) = experiment: as above; conditions: Postemergence
In short: as §1

[3] = test system: barnyardgrass (Echinochloa crus-galli); experiment: as above
In short: as §1

[4] = test system: ragweed (common ragweed, Ambrosia elatior); experiment: as above
In short: as §1

[5] = test system: foxtail, giant (giant foxtail, Setaria faberii); experiment: as above
In short: as §1

[6] = test system: ryegrass, Italian (Italian ryegrass, Lolium multiflorum); experiment: as above
In short: as §1

[7] = test system: barnyardgrass (Echinochloa crus-galli); experiment: Test B flooded paddy test; conditions: 250 g ai/ha, Flood; visual rating on scale of 0 to 100 where 0 is no effect and 100 is complete control; 13 to 15 d after treatment
In short: (§2)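 Plants grown to the 2-leaf stage. At treatment, pots were flooded to 3 cm above the soil, compound was applied directly to the paddy water, and that depth was held throughout. After 13 to 15 d in the greenhouse, response was rated visually against controls on a 0 (no effect) to 100 (complete control) scale.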

[8] = test system: sedge, umbrella (small-flower umbrella sedge, Cyperus difformis); experiment: Test B flooded paddy test; conditions: 250 g ai/ha, Flood; visual rating on scale of 0 to 100 where 0 is no effect and 100 is complete control; 13 to 15 d after treatment
In short: as §2

[9] = test system: ducksalad (Heteranthera limosa); experiment: Test B flooded paddy test; conditions: 250 g ai/ha, Flood; visual rating on scale of 0 to 100 where 0 is no effect and 100 is complete control; 13 to 15 d after treatment
In short: as §2

rice (Oryza sativa) = experiment: Test B flooded paddy test; conditions: 250 g ai/ha, Flood; visual rating on scale of 0 to 100 where 0 is no effect and 100 is complete control; 13 to 15 d after treatment
In short: as §2

[10] = test system: galium (catchweed bedstraw, Galium aparine); experiment: Test A greenhouse herbicide test, postemergence
In short: (§3)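 Visual injury score, 0 (no effect) to 100 (complete control), versus untreated controls roughly 10 d after postemergence spray; plants at one- to two-leaf stage, 2 to 10 cm tall, in loam soil and sand, kept in greenhouse.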

[11] = test system: blackgrass (Alopecurus myosuroides); experiment: Test A greenhouse herbicide test, postemergence
In short: as §3

[12] = Postemergence, 125 g ai/ha, 0 to 100 scale, 0 no effect, 100 complete control
[13] = Postemergence, 500 g ai/ha, visual rating after approx. 10 d, 0 to 100 scale (0 no effect, 100 complete control)
[14] = Preemergence, 125 g ai/ha, visual injury rating, 0 to 100 scale (0 no effect, 100 complete control), approx. 10 d
[15] = Preemergence, 500 g ai/ha, 0 to 100 scale where 0 is no effect and 100 is complete control
[16] = 125 g ai/ha, 0 to 100 scale, 0 no effect, 100 complete control
[17] = 500 g ai/ha, visual rating after approx. 10 d, 0 to 100 scale (0 no effect, 100 complete control)

SMILES	Plant response rating, Pigweed [1, 12]	Plant response rating, Pigweed [1, 13]	Plant response rating, Pigweed [1, 14]	Plant response rating, Pigweed [1, 15]	Plant response rating, Wheat [2, 16]	Plant response rating, Wheat [2, 17]	Plant response rating, Kochia (kochia (Kochia scoparia); [12])	Plant response rating, Kochia (kochia (Kochia scoparia); [13])	Plant response rating, Kochia (kochia (Kochia scoparia); [14])	Plant response rating, Kochia (kochia (Kochia scoparia); [15])	Plant response rating, Corn (corn (Zea mays); [16])	Plant response rating, Corn (corn (Zea mays); [17])	Plant response rating, Barnyardgrass [3, 12]	Plant response rating, Barnyardgrass [3, 13]	Plant response rating, Barnyardgrass [3, 14]	Plant response rating, Barnyardgrass [3, 15]	Plant response rating, Ragweed [4, 12]	Plant response rating, Ragweed [4, 13]	Plant response rating, Ragweed [4, 14]	Plant response rating, Ragweed [4, 15]	further results
CCC(=O)Oc1c(Br)nn(C)c(=O)c1-c1c(C)ccc2ccccc12 [Compound 156]	90	100	100	100	30	60	80	100	50	100	0	30	70	90	70	100	90	100	90	90	Plant response rating, Foxtail, Giant [5, 12]: 90; Plant response rating, Foxtail, Giant [5, 13]: 90; Plant response rating, Foxtail, Giant [5, 14]: 80; Plant response rating, Foxtail, Giant [5, 15]: 90; Plant response rating, Ryegrass, Italian [6, 12]: 90; Plant response rating, Ryegrass, Italian [6, 13]: 100; Plant response rating, Ryegrass, Italian [6, 14]: 90; Plant response rating, Ryegrass, Italian [6, 15]: 100; Plant response rating, Barnyardgrass [7]: 0; Plant response rating, Sedge, Umbrella [8]: 75; Plant response rating, Ducksalad [9]: 60; Plant response rating, Rice (rice (Oryza sativa)): 0; Plant response rating, Galium [10, 16]: 100; Plant response rating, Galium [10, 17]: 100; Plant response rating, Blackgrass [11, 16]: 60; Plant response rating, Blackgrass [11, 17]: 90
Cc1nn(C)c(=O)c(-c2ccc(Cl)c3ccccc23)c1OS(=O)(=O)C(F)(F)F [Compound 158]	80	100	10	100	0	0	90	100	30	40	0	0	10	50	10	60	90	100	50	80	Plant response rating, Foxtail, Giant [5, 12]: 30; Plant response rating, Foxtail, Giant [5, 13]: 60; Plant response rating, Foxtail, Giant [5, 14]: 10; Plant response rating, Foxtail, Giant [5, 15]: 40; Plant response rating, Ryegrass, Italian [6, 12]: 90; Plant response rating, Ryegrass, Italian [6, 13]: 100; Plant response rating, Ryegrass, Italian [6, 14]: 80; Plant response rating, Ryegrass, Italian [6, 15]: 80; Plant response rating, Barnyardgrass [7]: 0; Plant response rating, Sedge, Umbrella [8]: 65; Plant response rating, Ducksalad [9]: 0; Plant response rating, Rice (rice (Oryza sativa)): 20; Plant response rating, Galium [10, 16]: 80; Plant response rating, Galium [10, 17]: 90; Plant response rating, Blackgrass [11, 16]: 50; Plant response rating, Blackgrass [11, 17]: 60
Cc1nn(C)c(=O)c(-c2ccc(Cl)c3ccccc23)c1OC(=O)C(F)(F)F [Compound 159]	60	80	100	100	0	30	100	100	100	100	20	40	40	80	50	80	100	100	80	80	Plant response rating, Foxtail, Giant [5, 12]: 50; Plant response rating, Foxtail, Giant [5, 13]: 80; Plant response rating, Foxtail, Giant [5, 14]: 60; Plant response rating, Foxtail, Giant [5, 15]: 80; Plant response rating, Ryegrass, Italian [6, 12]: 100; Plant response rating, Ryegrass, Italian [6, 13]: 100; Plant response rating, Ryegrass, Italian [6, 14]: 100; Plant response rating, Ryegrass, Italian [6, 15]: 100; Plant response rating, Barnyardgrass [7]: 0; Plant response rating, Sedge, Umbrella [8]: 50; Plant response rating, Ducksalad [9]: 0; Plant response rating, Rice (rice (Oryza sativa)): 0; Plant response rating, Galium [10, 16]: 100; Plant response rating, Galium [10, 17]: 100; Plant response rating, Blackgrass [11, 16]: 70; Plant response rating, Blackgrass [11, 17]: 70
CCOC(=O)Oc1c(C)nn(C)c(=O)c1-c1c([N+](=O)[O-])ccc2ccccc12 [Compound 166]	40	80	80	90	0	20	50	70	30	90	20	20	10	20	10	10	30	70	70	90	Plant response rating, Foxtail, Giant [5, 12]: 10; Plant response rating, Foxtail, Giant [5, 13]: 40; Plant response rating, Foxtail, Giant [5, 14]: 10; Plant response rating, Foxtail, Giant [5, 15]: 30; Plant response rating, Ryegrass, Italian [6, 12]: 40; Plant response rating, Ryegrass, Italian [6, 13]: 90; Plant response rating, Ryegrass, Italian [6, 14]: 40; Plant response rating, Ryegrass, Italian [6, 15]: 90; Plant response rating, Barnyardgrass [7]: 0; Plant response rating, Sedge, Umbrella [8]: 0; Plant response rating, Ducksalad [9]: 0; Plant response rating, Rice (rice (Oryza sativa)): 0; Plant response rating, Galium [10, 16]: 70; Plant response rating, Galium [10, 17]: 90; Plant response rating, Blackgrass [11, 16]: 10; Plant response rating, Blackgrass [11, 17]: 30
Cc1nn(C)c(=O)c(-c2c([N+](=O)[O-])ccc3ccccc23)c1OC(=O)C1CC1 [Compound 167]	70	80	100	100	0	0	50	70	60	100	0	20	20	20	10	20	60	70	70	80	Plant response rating, Foxtail, Giant [5, 12]: 20; Plant response rating, Foxtail, Giant [5, 13]: 40; Plant response rating, Foxtail, Giant [5, 14]: 10; Plant response rating, Foxtail, Giant [5, 15]: 20; Plant response rating, Ryegrass, Italian [6, 12]: 70; Plant response rating, Ryegrass, Italian [6, 13]: 80; Plant response rating, Ryegrass, Italian [6, 14]: 80; Plant response rating, Ryegrass, Italian [6, 15]: 100; Plant response rating, Barnyardgrass [7]: 0; Plant response rating, Sedge, Umbrella [8]: 0; Plant response rating, Ducksalad [9]: 0; Plant response rating, Rice (rice (Oryza sativa)): 0; Plant response rating, Galium [10, 16]: 70; Plant response rating, Galium [10, 17]: 90; Plant response rating, Blackgrass [11, 16]: 20; Plant response rating, Blackgrass [11, 17]: 40

Source: patent US10597388B2, “Pyridazinone herbicides” (FMC CORPORATION, priority 2014, dated 2020)
